# Experimental data reported in patent publication US5990122A, “Quinolone- and naphthyridonecarboxylic acid derivatives” (Bayer Aktiengesellschaft, priority 1994, dated 1999).
# Where two headings read alike, the source gives them in different places.
# Assays:
# Type in all cases: cell-based
# [1] = inhibition of DNA synthesis in cells from ovaries of the Chinese hamster (CHO-KI), genotoxic potential, fluorophotometric; details: hamster, cho-k1 cells, measure of the genotoxic potential, read-out: ID50 (concentration at which DNA synthesis in CHO-KI cells is inhibited by 50%)
# Source text: (§1) The following Tables 1 and 2 show the minimum inhibitory concentrations as a measure of the antibacterial activity and the ID50 values as a measure of the genotoxic potential of a substance both for compounds according to the invention and for reference compounds from the prior art (EP 520 240). The compounds according to the invention are distinguished in particular by the fact that they have lower interactions with mammalian DNA compared with the compounds according to the prior art. The ID50 is understood as meaning the concentration of a substance at which DNA synthesis in cells from ovaries of the Chinese hamster (CHO-KI) is inhibited by 50%. This value is determined after incubation of the corresponding substances in decreasing dilution stages over defined periods of time. For this, the DNA synthesis in CHO-KI cells is determined in comparison with controls by means of fluorophotometric methods.
# [2] = system: E. coli Neumann; assay: minimum inhibitory concentration (MIC), series dilution method on Iso-Sensitest agar; details: 37° C., about 20 hours
# Method: (§2) The minimum inhibitory concentrations (MIC) were determined by a series dilution method on Iso-Sensitest agar (Oxoid). For each test substance, a series of agar plates each comprising concentrations of the active compound decreasing by double dilution in each case was prepared. The agar plates were inoculated with a multipoint inoculator (Denley). Overnight cultures of the pathogens which had been diluted beforehand such that each inoculation point comprised about 10^4 colony-forming particles were used for the inoculation. The inoculation agar plates were incubated at 37° C. and the germ growth was read off after about 20 hours. The MIC value (μg/ml) indicated the lowest active compound concentration at which no growth was detectable with the naked eye.
# [3] = system: Ps. aeruginosa Walter; assay: as above; details: 37° C., about 20 hours
# Method: as §2
# [4] = system: Staph. aureus 133; assay: as above; details: 37° C., about 20 hours
# Method: as §2
# [5] = system: Bac. fragilis ES 25; assay: as above; details: about 20 hours
# Method: as §2
# [6] = system: Staph. aureus ICB 25701; assay: as above; details: about 20 hours
# Method: as §2
# [7] = system: CHO-KI cells; assay: inhibition of DNA synthesis in cells from ovaries of the Chinese hamster (CHO-KI), genotoxic potential, fluorophotometric; details: measure of the genotoxic potential
# Source text: as §1
# [8] = Escherichia coli, read-out: MIC
# [9] = Pseudomonas aeruginosa, read-out: MIC
# [10] = Staphylococcus aureus, read-out: MIC
# [11] = Bacteroides fragilis, ES25, 37° C., read-out: MIC
# [12] = Staphylococcus aureus, ICB25701, 37° C., read-out: MIC
SMILES,"MIC [2, 8]","MIC [3, 9]","MIC [4, 10]","MIC [5, 11]","MIC [6, 12]",MIC [2],MIC [3],MIC [4],MIC ([5]; 37° C.),MIC ([6]; 37° C.),IC50 [1],ID50 (concentration at which DNA synthesis in CHO-KI cells is inhibited by 50%) [7]
"COc1c(N2CC3C4CCC(N)(CC4)C3C2)c(F)cc2c(=O)c(C(=O)O)cn(C3CC3)c12 (centres unmarked) [Example 20, 7-(1-amino-4-azatricyclo[5.2.2.0^2,6]undec-4-yl)-1-cyclopropyl-6-fluoro-1,4-dihydro-8-methoxy-4-oxo-3-quinolinecarboxylic acid]",0.03 µg/mL,2 µg/mL,0.015 µg/mL,1 µg/mL,0.125 µg/mL,–,–,–,–,–,16 µg/mL,–
"NC12CCC(CC1)C1CN(c3c(F)cc4c(=O)c(C(=O)O)cn(C5CC5)c4c3Cl)CC12 (centres unmarked) [Example 19, 7-(1-amino-4-azatricyclo-[5.2.2.0^2,6]undec-4-yl)-8-chloro-1-cyclopropyl-6-fluoro-1,4-dihydro-4-oxo-3-quinolinecarboxylic acid]",0.03 µg/mL,1 µg/mL,0.015 µg/mL,0.125 µg/mL,0.06 µg/mL,–,–,–,–,–,4 µg/mL,–
"CNC1C=CC(C)C2CN(c3c(F)cc4c(=O)c(C(=O)O)cn(C5CC5)c4c3Cl)CC12 (centres unmarked) [Ref. 4, 7(7-methyl-4-methylamino-1,3,3a,4,7,7a-hexahydro-isoindol-2-yl)-8-chloro- -cyclopropyl-6-fluoro-1,4-dihydro-4-oxo-3-quinolinecarboxylic acid, reference compound]",0.03 µg/mL,1 µg/mL,0.015 µg/mL,0.5 µg/mL,–,–,–,–,–,–,0.1 µg/mL,–
"CN1COc2c(N3CC4C5CCC(N)(CC5)C4C3)c(F)c(N)c3c(=O)c(C(=O)O)cn1c23 (centres unmarked) [Example 22, 8-amino-10-(1-amino-4-azatricyclo[5.2.2.0^2,6]undecan-4-yl)-9-fluoro-3-methyl-7-oxo-2,3-dihydro-7H-pyrido[1,2,3-d,e][1,3,4]benzoxadiazine-6-carboxylic acid]",–,–,–,–,–,0.125 µg/mL,8 µg/mL,0.031 µg/mL,4 µg/mL,2 µg/mL,–,8 µg/mL
"NC12C=CC(CC1)C1CN(c3cc4c(cc3F)c(=O)c(C(=O)O)cn4C3CC3)CC12 (centres unmarked) [Example 1, 7-(1-amino-4-aza-tricyclo[5.2.2.0^2,6]undec-8-en-4-yl)-1-cyclopropyl-6-fluoro-1,4-dihydro-4-oxo-3-quinolinecarboxylic acid]",0.125 µg/mL,8 µg/mL,0.062 µg/mL,16 µg/mL,8 µg/mL,–,–,–,–,–,24 µg/mL,–
"NC12C=CC(CC1)C1CN(c3c(F)cc4c(=O)c(C(=O)O)cn(C5CC5)c4c3C(F)(F)F)CC12 (centres unmarked) [Example 6, 7-(1-Amino-4-aza-tricyclo[5.2.2.0^2,6]undec-8-en-4-yl)-1-cyclopropyl-6-fluoro-1,4-dihydro-4-oxo-8-trifluoromethyl-3-quinolinecarboxylic acid]",0.06 µg/mL,4 µg/mL,0.015 µg/mL,0.25 µg/mL,0.125 µg/mL,–,–,–,–,–,10 µg/mL,–
"NC12CCC(CC1)C1CN(c3c(F)cc4c(=O)c(C(=O)O)cn(C5CC5)c4c3F)CC12 (centres unmarked) [Example 18, 7-(1-amino-4-azatricyclo[5.2.2.0^2,6]undec-4-yl)-1-cyclopropyl-6,8-difluoro-1,4-dihydro-4-oxo-3-quinolinecarboxylic acid]",0.03 µg/mL,2 µg/mL,0.015 µg/mL,1 µg/mL,0.25 µg/mL,–,–,–,–,–,1 µg/mL,–

# Further molecules by falling MIC [2, 8], results first:
"MIC [2, 8]","MIC [3, 9]","MIC [4, 10]","MIC [5, 11]","MIC [6, 12]",MIC [2],MIC [3],MIC [4],MIC ([5]; 37° C.),MIC ([6]; 37° C.),SMILES,IC50 [1],ID50 (concentration at which DNA synthesis in CHO-KI cells is inhibited by 50%) [7]
0.015 µg/mL,1 µg/mL,0.015 µg/mL,0.125 µg/mL,0.031 µg/mL,–,–,–,–,–,"COc1c(N2CC3C4C=CC(N)(CC4)C3C2)c(F)cc2c(=O)c(C(=O)O)cn(C3CC3)c12 (centres unmarked) [Example 5, 7-(1-amino-4-aza-tricyclo[5.2.2.0^2,6]undec-8-en-4-yl)-1-cyclopropyl-6-fluoro-1,4-dihydro-8-methoxy-4-oxo-3-quinolinecarboxylic acid]",8 µg/mL,–
0.015 µg/mL,0.5 µg/mL,0.015 µg/mL,0.5 µg/mL,0.06 µg/mL,–,–,–,–,–,"CC1C=CC(N)C2CN(c3c(F)cc4c(=O)c(C(=O)O)cn(C5CC5)c4c3F)CC12 (centres unmarked) [Ref. 1, 7(4-amino-7-methyl-1,3,3a,4,7,7a-hexahydro-isoindol-2-y1)-1-cyclopropyl-6 8-difluoro-1,4-dihydro-4-oxo-3-quinolinecarboxylic acid, reference compound]",–,–
0.015 µg/mL,0.5 µg/mL,0.015 µg/mL,0.5 µg/mL,0.062 µg/mL,–,–,–,–,–,NC12C=CC(CC1)C1CN(c3c(F)cc4c(=O)c(C(=O)O)cn(C5CC5)c4c3F)CC12 (centres unmarked) [Example 2],1 µg/mL,–
0.015 µg/mL,4 µg/mL,0.015 µg/mL,0.125 µg/mL,0.125 µg/mL,–,–,–,–,–,"NC12CCC(CC1)C1CN(c3c(F)cc4c(=O)c(C(=O)O)cn(C5CC5)c4c3C(F)(F)F)CC12 (centres unmarked) [Example 21, 7-(1-amino-4-azatricyclo[5.2.2.0^2,6]undec-4-yl)-1-cyclopropyl-6-fluoro-1,4-dihydro-4-oxo-8-trifluoromethyl-3-quinolinecarboxylic acid]",10 µg/mL,–
0.015 µg/mL,1 µg/mL,0.015 µg/mL,0.25 µg/mL,0.015 µg/mL,–,–,–,–,–,"COc1c(N2CC3C(C)C=CC(N)C3C2)c(F)cc2c(=O)c(C(=O)O)cn(C3CC3)c12 (centres unmarked) [Ref. 2, 7(4-amino-7-methyl-1,3,3a,4,7,7a-hexahydro-isoindol-2-y1)-1-cyclopropyl-6 fluoro-1,4-dihydro-8-methoxy-4-oxo-3-quinolinecarboxylic acid, reference compound]",–,–
0.015 µg/mL,0.5 µg/mL,0.015 µg/mL,0.125 µg/mL,0.031 µg/mL,–,–,–,–,–,"NC12C=CC(CC1)C1CN(c3c(F)cc4c(=O)c(C(=O)O)cn(C5CC5)c4c3Cl)CC12 (centres unmarked) [Example 3, 7-(1-Amino-4-aza-tricyclo[5.2.2.0^2,6]undec-8-en-4-yl)-8-chloro-1-cyclopropyl-6-fluoro-1,4-dihydro-4-oxo-3-quinoline-carboxylic acid]",4 µg/mL,–
0.015 µg/mL,0.5 µg/mL,0.015 µg/mL,0.125 µg/mL,0.015 µg/mL,–,–,–,–,–,"CC1C=CC(N)C2CN(c3c(F)cc4c(=O)c(C(=O)O)cn(C5CC5)c4c3Cl)CC12 (centres unmarked) [Ref. 3, 7(4-amino-7-methyl-1,3,3a,4,7,7a-hexahydro-isoindol-2-yl)-8-chloro-1-cycl propyl-6-fluoro-1,4-dihydro-4-oxo-3-quinolinecarboxylic acid, reference compound]",–,–
